# Source: patent publication US8512678B2, “Non-invasive, in vivo fluorescent imaging of the nervous system in whole living animal” (priority 2005, dated 2013)
# “Also recorded” adds a separate entry of the source.
# Key:
# [1] = tested on: tyrosine hydroxylase (TH) immuno-positive dopaminergic neurons; assay: TH immunostaining in the substantia nigra compact (SNC); assay type: in vivo, mouse; conditions: 6 hr after 12 mg/kg sc, neonatal mice
# Description: (§1) In order to determine whether the photons were being emitted from the astrocytes in the CNS, the brains were harvested and fixed with 4% paraformaldehyde in 0.1 M phosphate buffer saline (PBS, pH 7.4) for 4 hr at 4° C. The brains were then washed three times in PBS with an incubation time of 15 min each time before soaking in 30% sucrose overnight at 4° C. All brains were embedded in freezing medium after immersing the tissues in liquid nitrogen prior to mounting and sectioning them using a cryostat (Leica Microsystems, Nussloch GmbH; CM-3050S). Coronal cryosections, 20 μm in thickness of the substantia nigra (bregma −3.16 mm, interaural 0.64 mm) were used for immunohistochemistry according to the Atlas of Mouse brain (Franklin and Paxinos, 2001). Each of the control and treated group contained 4 animals […].
# For tyrosine hydroxylase (TH) and GFAP immunostaining, a rabbit anti-TH polyclonal antibody (Chemicon International, Temecula, Calif., USA; Ab-152) and a rabbit anti-GFAP polyclonal antibody (DakoCytomation, Denmark; Z-0334) were used. […] After another three times 15 min rinse in 1×PBS, the sections were coverslipped in 10 μl of the fluorescence medium and viewed under the confocal laser scanning microscope (Olympus Optical Co. Ltd. Tokyo, Japan; IX-71).
# GFAP-GFP transgene = assay: Non-invasive in vivo neural imaging of GFAP-GFP transgenic neonatal mice (relative fluorescence, IVIS); set-up: species or system mouse; conditions: for increase in relative fluorescence (RF), mean, compared to 0 hr: 6 hr after treatment; for increase in relative fluorescence (RF), mean, over the control group: 6 hr post-treatment, P<0.01
# Source text: The generation and genotyping of the transgenic GFAP-GFP mice were done as previously described (Zhuo et al., 1997). Neonatal mice of FVB/N background at 4 days of age, weighing 2.0 g-2.5 g were used in the present study. Animal husbandry was provided by National University of Singapore animal holding unit facility. The experimental protocol covering the current study was approved by the Institutional Animal Care and Use Committee.
# The neonatal mice received a single subcutaneous (sc) injection of 2′-CH3-MPTP (12 mg/kg in saline) at 0 hour. Saline was used as a vehicle for the control group. Neural imaging was subsequently performed at 2 hr, 4 hr, 6 hr and 8 hr post-treatment.
# Non-invasive imaging was conducted using an IVIS Imaging System 100 Series (Xenogen Corp., Alameda, Calif., U.S.A.). A 2′-CH3-MPTP-treated pair comprising of a transgenic and a non-transgenic neonatal mouse was positioned beside one another and held in position without anesthesia by physically restraining the mice on the lower back using tape. […] Subsequently, the pair of neonatal mice were fluorescently imaged with the GFP filter set equipped with the IVIS system. The image acquisition time was ten seconds. The same procedure was applied on the control pair injected with saline as well. Result of the neurotoxic effect of 2′-CH3-MPTP on the mice was expressed as relative fluorescence (RF), a ratio between the total GFP fluorescent signals detected from the region of interest (ROI) in transgenic (Tg) mouse and the tissue autofluorescence signals from the ROI in non-transgenic (nTg) mouse (TgROI/nTgROI). The area of the ROI for both mice is exactly the same and is identical throughout all the ROI used in the study to quantify the radiances. To minimize any variations due to the imaging system, three images were captured for each pair of treated and control mice and the mean value derived used as the quantitative reading for that particular pair. The values of the control (n=5 pairs of mice) and treated groups (n=5 pairs of mice) were expressed as means±SEM and statistical significance was evaluated using Student's two-tailed paired t-test.
# The neurotoxin used was 2′-CH3-MPTP.
# The neurotoxins used were 2′-CH3-MPTP and Kainic Acid (KA). […] KA was used in dosages 2 mg/kg with one injection. All injections were carried out subcutaneously.
# [2] = tested on: GFP expression in the astrocytes; assay: Confocal imaging of endogenous GFP with GFAP immunostaining in brain cryosections; assay type: in vivo, mouse; conditions: for GFP expression in the astrocytes: Tg mice
# Description: as §1
# For tyrosine hydroxylase (TH) and GFAP immunostaining, a rabbit anti-TH polyclonal antibody (Chemicon International, Temecula, Calif., USA; Ab-152) and a rabbit anti-GFAP polyclonal antibody (DakoCytomation, Denmark; Z-0334) were used. The cryosections were washed for 5 min in 0.15 M 1×PBS followed by incubating for 4 hr at 4° C. in blocking solution of PBS containing 0.1% (v/v) Triton X-100 and 10% nonimmune goat serum. The cryosections were then washed in 0.15 M 1×PBS three times, each for 15 min. The brain sections were then incubated overnight with anti-TH antibody (1:200) and anti-GFAP antibody (1:200), in 1×PBS containing 0.01% (v/v) Triton X-100 and 1% nonimmune goat serum at 4° C. After a three times 15 min rinse in 1×PBS, the sections were incubated with Texas-red conjugated goat polyclonal to rabbit secondary IgG antibody (Abcam Ltd, Cambridge, U.K.; Ab-7088) at 1:100 dilution in PBS containing 0.01% (v/v) Triton X-100 and 1% nonimmune goat serum for 2 hr at room temperature. After another three times 15 min rinse in 1×PBS, the sections were coverslipped in 10 μl of the fluorescence medium and viewed under the confocal laser scanning microscope (Olympus Optical Co. Ltd. Tokyo, Japan; IX-71).
# GFAP gene expression = assay: Real-time RT-PCR of brain RNA, GFAP gene expression; assay type: in vivo, mouse; conditions: transgenic mice, 2 hours after treatment, 1×2 mg/kg, p<0.01
# Description: (§2) […] The brain was removed and then lysed in buffer RA1 and β-mercaptoethanol. Total RNA from the brain was isolated using NucleoSpin® RNA II kit. Total RNA was reverse-transcribed with random hexamers and real-time RT-PCR was performed on the cDNA to quantify gene expression.
# (§3) The brain was removed and then lysed in buffer RA1 and β-mercaptoethanol. Total RNA from the brain was isolated using NucleoSpin® RNA II kit. Total RNA was reverse-transcribed with random hexamers and real-time RT-PCR was performed on the cDNA to quantify gene expression. The same procedure is carried out for mice treated with KA (1×2 mg/kg).
# GFP gene expression = assay: Real-time RT-PCR of brain RNA, GFP gene expression; assay type: in vivo, mouse; conditions: transgenic mice, 2 hours after treatment, 1×2 mg/kg, p<0.05
# Description: as §2, §3
structure (smiles),measurement,setting,value
"Cc1ccccc1C1=CCN(C)CC1 [2′-CH3-MPTP, 1-methyl-4-(2′-methylphenyl)-1,2,3,6-tetrahydropyridine]",TH immuno-positive fibers and cell bodies / TH-like immunoreactivity,[1],No visual reduction; also recorded: No obvious changes
same,"increase in relative fluorescence (RF), mean, compared to 0 hr","GFAP-GFP transgene; single dose 12 mg/kg sc, neonatal mice, P<0.0001",17%
same,"increase in relative fluorescence (RF), mean, over the control group","GFAP-GFP transgene; single dose 12 mg/kg sc, neonatal mice, brain ROI",22%
same,difference in relative fluorescence (RF) between treated and control group,"GFAP-GFP transgene; single dose 12 mg/kg sc, at 4 hr, 6 hr and 8 hr after treatment",significant difference
same,expression of the GFAP-GFP transgene in the astrocytes,"[2]; SNC sections, 6 hr post-treatment as compared to 0 hr, 12 mg/kg sc",up-regulation
same,GFP expression in the astrocytes,"[2]; ventricle and hippocampus area, 6 hr after one-time 12 mg/kg sc",evidently increased
"C=C(C)[C@H]1CN[C@H](C(=O)O)[C@H]1CC(=O)O [KA, Kainic acid]",enhancement in gene expression of GFAP,GFAP gene expression,about 21%
same,enhancement in gene expression of GFP,GFP gene expression,~22%
same,"increase in relative fluorescence (RF), mean, compared to 0 hr","GFAP-GFP transgene; single dose 2 mg/kg sc, P<0.05",22%
same,"increase in relative fluorescence (RF), mean, over the control group","GFAP-GFP transgene; single dose 2 mg/kg sc, neonatal mice",25%
same,difference in relative fluorescence (RF) between treated and control group,"GFAP-GFP transgene; single dose 2 mg/kg sc, at 4 hr and 6 hr after treatment",significant difference
same,GFP expression in the astrocytes,"[2]; various areas of the hippocampus (CA1, CA2, CA3), 6 hr after one-time 2 mg/kg sc",evidently increased
"CN1CC=C(c2ccccc2)CC1 [MPTP, 1-methyl-4-phenyl-1,2,3,6-tetrahydropyridine]",difference in RF between the different time intervals,"GFAP-GFP transgene; single dose 12 mg/kg sc, neonatal transgenic mice (FIG. 9)",no significant difference
